Measured values: patent US11021541B2, “Method of inhibiting the gonadotropin-releasing hormone (GnRH) receptor by administering a GHR-106 monoclonal antibody” (Vancouver Biotech Ltd., priority 2018, dated 2021)
Like-named read-outs stand apart in the source and are kept apart here. Where a SMILES comes first, the peptide text is derived from it. [ ]: non-standard residue; d: D form. dPhe(4-Cl) = N[C@H](Cc1ccc(Cl)cc1)C(=O)O; d2Nal = N[C@H](Cc1ccc2ccccc2c1)C(=O)O; dCit = NC(=O)NCCC[C@@H](N)C(=O)O; d3Pal = N[C@H](Cc1cccnc1)C(=O)O

Tests used:
[1] = cited from earlier work; for Estimated Half Life: estimated circulation half-life
[2] = tested on: GnRH receptors expressed on the surface of cultured cancer cells (OC-3-VGH); assay: Competitive binding assay on microwells coated with OC-3-VGH cancer cells; design: species or system human; conditions: for competition with mGHR106 binding to OC-3-VGH coated microwells: FIG. 1A, mGHR106 0.50 or 0.25 μg/ml; for competition with hGHR106 binding to OC-3-VGH coated microwells: FIG. 1B, peptides each at 1 μg/mL
Experimental: Competitive binding assays were carried out according to accepted protocols, e.g. as described in U.S. Pat. No. 8,361,793. […] The N1-29 oligopeptides are derived from the N-terminal extracellular domains of GnRH receptors from each species. The amino acid sequence of each of Hu-P, Mo-P and Mu-P are shown as SEQ ID NO:1, SEQ ID NO:2 and SEQ ID NO:3 respectively in FIG. 3.
The white bars and black bars in FIG. 1A represent the different concentrations of mGHR106 (0.50 μg/ml and 0.25 μg/ml, respectively) used in each assay. […] Goat anti-human IgG-ALP (alkaline phosphatase labeled) was used as the probe, with error bars for duplicate assays indicated.

[3] = tested on: OC-3-VGH cancer cells; assay: Comparative gene regulation study in cancer cells; assay type: cell-based, human; conditions: FIG. 4; upon ligand treatment of cancer cells
Source text: Comparative gene regulation upon administration of hGHR106 or the decapeptide GnRH analog antide was examined using conventional protocols, e.g. as described in U.S. Pat. No. 8,361,793. […] Expressions of a number of selected genes involved in the proliferation or survival of cancer cells were compared. The selected genes include: GnRH, GnRHR, P0, P1, P2, L37, and EGF, c-fos, P21 and cyclin D1. P0, P1, P2, and L37 are ribosomal proteins.

[4] = tested on: OC-3-VGH, PC-3, A549 and MDA-MB-435 cancer cells; assay: TUNEL apoptosis assay of cultured and treated cancer cells; assay type: cell-based; conditions: co-incubation 24 to 72 hours, compared on a molar basis, FIGS. 2A and 2B
Experimental: In order to compare the anti-proliferative effects (or apoptosis) between mGHR106 or hGHR106 and antide on cancer cells, In Situ Cell Death Detection Kit, POD (Roche, Canada) was employed for detection and quantitation of apoptosis of cultured and treated cancer cells in vitro. Briefly cancer cells were cultured in RPMI-1640 medium at 37° C. in a CO2 (5%) incubator for 24 and/or 48 hours until all cancer cells are attached to microwells. Following removal of cell culture medium, fresh serum-free medium was added for an additional 3 hours incubation in a CO2 incubator.
After the serum-free starvation period, the cells were incubated in fresh medium containing 10% fetal calf serum, and hGHR106, mGHR106 or antide of known concentration was added for co-incubation of 24 to 72 hours. As the negative control, normal mouse IgG or normal human IgG of the same concentration was used for the same incubation period.
At the end of incubation, the attached cells were removed from tissue culture wells by appropriate cell detachment solution. Apoptosis of treated cancer cells was quantitatively determined by TUNEL assay with the instructions provided by Cell Death Detection Kit, POD (Roche, Canada). Percent increases of cells with apoptosis after treatments with any one of hGHR106, mGHR106 and antide were obtained by subtracting spontaneous apoptosis from the negative control. […]

[5] = clinically used antibodies and GnRH decapeptide analogs

| Molecule | Estimated Half Life [1, 5] [h] | competition with mGHR106 binding to OC-3-VGH coated microwells [2] | competition with hGHR106 binding to OC-3-VGH coated microwells [2] | further results |
| --- | --- | --- | --- | --- |
| CC(=O)N[C@H](Cc1ccc2ccccc2c1)C(=O)N[C@H](Cc1ccc(Cl)cc1)C(=O)N[C@H](Cc1cccnc1)C(=O)N[C@@H](CO)C(=O)N[C@@H](Cc1ccc(O)cc1)C(=O)N[C@H](CCCNC(N)=O)C(=O)N[C@@H](CC(C)C)C(=O)N[C@@H](CCCNC(=N)N)C(=O)N1CCC[C@H]1C(=O)N[C@H](C)C(N)=O [Cetrorelix] (Ac-[d2Nal][dPhe(4-Cl)][d3Pal]SY[dCit]LRP[dA]-NH2) | 10 to 63 |  |  |  |
| Beracizumab | 480 |  |  |  |
| Gonadotropin-releasing hormone [Native GnRH] |  |  |  | Estimated Half Life ([1]; native GnRH): 0.033 to 0.067 h; half-life in human circulation ([1]; human circulation): 2 to 4 min |
| Hu-P: N1-29 oligopeptide of N-terminal extracellular domain of human GnRH receptor, SEQ ID NO:1 (MANNASLEQDPNHCSAINNSIPLIQGKLPT; listed as Mus musculus) |  | compete | compete |  |
| Luprorelin | 3 |  |  |  |
| Mo-P: N1-29 oligopeptide of N-terminal extracellular domain of monkey GnRH receptor, SEQ ID NO:2 (MANSALPEQNQNHCSVINNSIPLMQGNLPT; Pan troglodytes) |  | compete | compete |  |
| Mu-P: N1-29 oligopeptide of N-terminal extracellular domain of mouse GnRH receptor, SEQ ID NO:3 (MANSASPEQNQNHCSAINNSIPLMQGNLPT; listed as Homo sapiens) |  | not | not |  |
| Panitumumab | 180 |  |  |  |
| antide |  |  |  | Cyclin D1 expression [3]: downregulated; EGF expression [3]: downregulated; GnRH expression (up-regulation) [3]: 50%; expression of the GnRH receptor (GnRHR) [3]: unchanged; induced apoptosis (percent increase of cells with apoptosis) [4]: very similar degrees of induced apoptosis |
